According to PMC3363478, “Pharmacokinetics of micafungin in patients with severe burn injuries” (Critical Care, 2012):
Numbered stars: 1 amine (or outer) side, 2 acyl side, 3 side chain; on linkers, the order of the positions; unused ones are H or OH. Bridge positions count the residues as written; N and C are the ends. Square brackets hold non-standard residues; d marks the D form. Peptide text beside a SMILES is read from it. * marks the point of attachment. hTyr(3S-OH,4S-OH,3'-OSO3H) = N[C@H](C(=O)O)[C@H](O)[C@@H](O)c1ccc(O)c(OS(=O)(=O)O)c1; Orn(4R-OH,5R-OH) = O=C([C@H](C[C@@H](O)[C@@H](O)N[*:3])N[*:1])[*:2]; Pro(3S-OH,4S-Me) = C[C@H]1CN[C@H](C(=O)O)[C@H]1O; X1 = CCCCCOc1ccc(-c2cc(-c3ccc(C(=O)*)cc3)no2)cc1; Gln(3R-OH) = NC(=O)C[C@@H](O)[C@H](N)C(=O)O; Hyp = O=C(O)[C@@H]1C[C@@H](O)CN1

Tests used:
[1] = cited from earlier work
Experimental: The plasma concentrations of MCFG per dose normalized with body weight (C/D) at P1, T1, P4, and T4 were 1.37 to 6.28, 0.51 to 1.38, 3.20 to 6.46, and 0.65 to 2.18 (μg/ml)/(mg/kg), respectively, indicating marked interindividual differences. […] The MCFG concentrations in the burn eschar of three patients at T1 and T4 were <0.1 to 3.98 and 1.10 to 14.81 μg/ml, respectively. Most of MCFG concentrations in the plasma and burn eschar were higher than the reported MIC90 of MCF ...

[2] = MCFG concentrations in the burn eschar of severe burn patients; assay type: in vivo, human; conditions: patients with severe burn injuries; conclusion in words
Experimental: Eight severe burn patients within 14 days after injuries (M:F = 5:3, 19 to 85 years old, 35 to 85% total body surface area) were treated with MCFG (200 to 300 mg, 3.45 to 4.49 mg/kg) once daily by intravenous infusion over 1 hour. The MCFG concentrations in the plasma at the end of the initial administration of MCFG (P1), just before the second dosing (T1), at the end of the fourth dosing (P4), and just before the fifth dosing (T4) were determined, and were compared with the reported values in health volunteers. MCFG concentrations in the burn eschar at T1 and T4 were also measured.

CCCCCOc1ccc(-c2cc(-c3ccc(C(=O)N[C@H]4C[C@@H](O)[C@@H](O)NC(=O)[C@@H]5[C@@H](O)[C@@H](C)CN5C(=O)[C@H]([C@H](O)CC(N)=O)NC(=O)[C@H]([C@H](O)[C@@H](O)c5ccc(O)c(OS(=O)(=O)O)c5)NC(=O)[C@@H]5C[C@@H](O)CN5C(=O)[C@H]([C@@H](C)O)NC4=O)cc3)no2)cc1 [MCFG, Micafungin] (X1-[Orn(4R-OH,5R-OH)]T[Hyp][hTyr(3S-OH,4S-OH,3'-OSO3H)][Gln(3R-OH)][Pro(3S-OH,4S-Me)]; lactam 1-C)
plasma C/D at P1, reported value in healthy volunteers ([1]; P1 = end of the initial administration): 5.7 (μg/ml)/(mg/kg)
plasma C/D at T1, reported value in healthy volunteers ([1]; T1 = just before the second dosing): 1.3 (μg/ml)/(mg/kg)
plasma C/D at T4, reported value in healthy volunteers ([1]; T4 = just before the fifth dosing): 2.1 (μg/ml)/(mg/kg)
penetration into burn eschar [2]: capable of penetrating burn eschar
